Assay results reported in US5910504A, “Hetero-aromatic ring substituted phenyloxazolidinone antimicrobials” (Pharmacia & Upjohn, priority 1997, dated 1999).
Values after ≈ are worked out from the molar mass of the structure shown. Values joined by “and” are separate entries in the source; they are usually repeats but may differ in a detail not shown here. Identical values can stand only once. Like-named read-outs stand apart in the source and are kept apart here.

Columns and labels:
[1] = test system: S. aureus, UC 9213; assay: In vitro activity: minimum inhibitory concentration (MIC) by agar dilution, S. aureus; format: cell-based; details: Staphylococcus aureus
Source text: (§1) The oxazolidinone antibacterial agents of this invention have useful activity against a variety of organisms. The in vitro activity of compounds of this invention can be assessed by standard testing procedures such as the determination of minimum inhibitory concentration (MIC) by agar dilution as desribed in "Methods for Dilution Antimicrobial Susceptibility Tests for Bacteria That Grow Aerobically" (MFT) published January 1983 by the National Committee for Clinical Laboratory Standards, 771 East Lancaster Avenue, Villanova, Pa. 19084, USA. The activity of selected compounds of this invention against Staphylococcus aureus and Streptococcus pneumoniae are shown in Table 1.

[2] = test system: S. pneumoniae, UC 9912; assay: In vitro activity: minimum inhibitory concentration (MIC) by agar dilution, S. pneumoniae; format: cell-based; details: Streptococcus pneumoniae
Source text: as §1

[3] = test system: S. aureus, UC 9213; assay: In vivo antimicrobial activity, Murine Assay procedure; design: species or system Staphylococcus aureus (infected female mice); details: oral or subcutaneous; for ED50: Staphylococcus aureus, UC9213, 144 h
Protocol: Antimicrobial activity was tested in vivo using the Murine Assay procedure. Groups of female mice (six mice of 18-20 grams each) were injected intraperitoneally with bacteria which were thawed just prior to use and suspended in brain heart infusion with 4% brewers yeast UC9213 (Staphylococcus aureus) or brain heart infusion (Streptococcus species). Antibiotic treatment at six dose levels per drug was administered one hour and five hours after infection by either oral intubation or subcutaneous ("subcut.") routes. Survival was observed daily for six days. ED50 values based on mortality ratios were calculated using probit analysis. The subject compounds were compared against a well-known antimicrobial (Vancomycin) as a control.

[4] = UC9213, agar dilution, read-out: Minimum Inhibitory Concentration, S. aureus, UC 9213
[5] = UC9912, agar dilution, read-out: Minimum Inhibitory Concentration, S. pneumoniae, UC 9912
[6] = female mice, i.p. infection, drug 1 h and 5 h after infection, six-day survival, probit, read-out: ED50, S. aureus, UC 9213

CC(=O)NC[C@H]1CN(c2ccc(-n3cccc3)c(F)c2)C(=O)O1 [Example 1, (S)-N-[[3-[3-Fluro-4-(1H-pyrrol-1-yl)phenyl]-2-oxo-5-oxazolidinyl]methyl]acetamide]
MIC [1, 4]: < 0.5 µg/mL | MIC [2, 5]: < 0.5 µg/mL

CC(=O)NC[C@H]1CN(c2ccc(-n3cccn3)c(F)c2)C(=O)O1 [Example 2, (S)-N-[[3-[3-Fluoro-4-(1H-pyrazol-1-yl)phenyl]-2-oxo-5-oxazolidinyl]methyl]acetamide]
MIC [1, 4]: 2 µg/mL (≈ 6.28 µM) | MIC [2, 5]: 1 µg/mL (≈ 3.14 µM)

CC(=O)NC[C@H]1CN(c2ccc(-n3ccnc3)c(F)c2)C(=O)O1 [Example 3, (S)-N-[[3-[3-Fluoro-4-(1H-imidazol-1-yl)phenyl]-2-oxo-5-oxazolidinyl]methyl]acetamide]
MIC [1, 4]: 2 µg/mL (≈ 6.28 µM) | MIC [2, 5]: < 0.5 µg/mL | ED50 [3, 6]: 9.5 mg/kg

CC(=O)NC[C@H]1CN(c2ccc(-n3cncn3)c(F)c2)C(=O)O1 [Example 4, (S)-N-[[3-[3-Fluoro-4-(1H-1,2,4-triazol-1-yl)phenyl]-2-oxo-5-oxazolidinyl]methyl]acetamide]
MIC [1, 4]: 4 µg/mL (≈ 12.5 µM) | MIC [2, 5]: 1 µg/mL (≈ 3.13 µM) | ED50 [3, 6]: 5.7 mg/kg

CC(=O)NC[C@H]1CN(c2ccc(-n3ccc4ccccc43)c(F)c2)C(=O)O1 [Example 5, (S)-N-[[3-[3-Fluoro-4-(1H-indol-1-yl)phenyl]-2-oxo-5-oxazolidinyl]methyl]acetamide]
MIC [1, 4]: 4 µg/mL (≈ 10.9 µM) | MIC [2, 5]: 1 µg/mL (≈ 2.72 µM)

CC(=O)NC[C@H]1CN(c2ccc(-n3ccnn3)c(F)c2)C(=O)O1 [Example 6, (S)-N-[[3-[3-Fluoro-4-(1H-1,2,3-triazol-1-yl)phenyl]-2-oxo-5-oxazolidinyl]methyl]acetamide]
MIC [1, 4]: 1 µg/mL (≈ 3.13 µM) | MIC [2, 5]: < 0.5 µg/mL | ED50 [3, 6]: 4.7 mg/kg

O=C(NC[C@H]1CN(c2ccc(-n3ccnn3)c(F)c2)C(=O)O1)C(Cl)Cl [Example 7, (S)-N-[[3-[3-Fluoro-4-(1H-1,2,3-triazol-1-yl)phenyl]-2-oxo-5-oxazolidinyl]methyl]-2,2-dichloroacetamide]
MIC [1, 4]: 1 µg/mL (≈ 2.58 µM) | MIC [2, 5]: < 0.5 µg/mL | ED50 [3, 6]: 11.9 mg/kg

CC(=O)NC[C@H]1CN(c2ccc(-n3nccn3)c(F)c2)C(=O)O1 [Example 8, (S)-N-[[3-[3-Fluoro-4-(2H-1,2,3-triazol-2-yl)phenyl]-2-oxo-5-oxazolidinyl]methyl]acetamide]
MIC [1, 4]: 4 µg/mL (≈ 12.5 µM) | MIC [2, 5]: 1 µg/mL (≈ 3.13 µM)

CC(=O)NC[C@H]1CN(c2ccc(-n3cnnc3S)c(F)c2)C(=O)O1 [Example 9, (S)-N-[[3-[3-Fluoro-4-(3-mercapto-4H-1,2,4-triazol-4-yl)phenyl]-2-oxo-5-oxazolidinyl]methyl]acetamide]
MIC [1, 4]: > 32 µg/mL | MIC [2, 5]: 8 µg/mL (≈ 22.8 µM)

CSc1nncn1-c1ccc(N2C[C@H](CNC(C)=O)OC2=O)cc1F [Example 10, (S)-N-[[3-[3-Fluoro-4-(3-methylthio-4H-1,2,4-triazol-4-yl)phenyl]-2-oxo-5-oxazolidinyl]methyl]acetamide]
MIC [1, 4]: 8 µg/mL (≈ 21.9 µM) | MIC [2, 5]: 1 µg/mL (≈ 2.74 µM)

CC(=O)NC[C@H]1CN(c2ccc(-n3cnnc3)c(F)c2)C(=O)O1 [Example 11, (S)-N-[[3-[3-Fluoro-4-(4H-1,2,4-triazol-4-yl)phenyl]-2-oxo-5-oxazolidinyl]methyl]acetamide]
MIC [1, 4]: > 16 µg/mL | MIC [2, 5]: 1 µg/mL (≈ 3.13 µM)

CC(=O)NC[C@H]1CN(c2ccc(-n3ccc(C=O)c3)c(F)c2)C(=O)O1 [Example 12, (S)-N-[[3-[3-Fluoro-4-(1H-pyrrol-1-yl-3-carboxaldehyde)phenyl]-2-oxo-5-oxazolidinyl]methyl]acetamide]
MIC [1, 4]: 0.25 µg/mL (≈ 0.724 µM) | MIC [2, 5]: < 0.06 µg/mL

CC(=O)NC[C@H]1CN(c2ccc(-n3ccc(CO)c3)c(F)c2)C(=O)O1 [Example 13, (S)-N-[[3-[3-Fluoro-4-(3-hydroxymethyl-1H-pyrrol-1-yl)phenyl]-2-oxo-5-oxazolidinyl]methyl]acetamide]
MIC [1, 4]: 1 µg/mL (≈ 2.88 µM) | MIC [2, 5]: 0.25 µg/mL (≈ 0.72 µM)

COC(=O)c1ccn(-c2ccc(N3C[C@H](CNC(C)=O)OC3=O)cc2F)c1 [Example 14, (S)-N-[[3-[3-Fluoro-4-(3-carbomethoxy-1H-pyrrol-1-yl)phenyl]-2-oxo-5-oxazolidinyl]methyl]acetamide]
MIC [1, 4]: 2 µg/mL (≈ 5.33 µM) | MIC [2, 5]: 0.25 µg/mL (≈ 0.666 µM)

CON=Cc1ccn(-c2ccc(N3C[C@H](CNC(C)=O)OC3=O)cc2F)c1 [Example 15, (S)-N-[[3-[3-Fluoro-4-(1H-pyrrol-1-yl-3-carboxaldehyde)phenyl]-2-oxo-5-oxazolidinyl]methyl]acetamide, methoxime]
MIC [1, 4]: 1 µg/mL (≈ 2.67 µM) | MIC [2, 5]: 0.25 µg/mL (≈ 0.668 µM) | ED50 [3, 6]: 7.3 mg/kg

CC(=O)NC[C@H]1CN(c2ccc(-n3ccc(C=NO)c3)c(F)c2)C(=O)O1 [Example 16, (S)-N-[[3-[3-Fluoro-4-(3-(hydroxyiminomethyl)-1H-pyrrol-1-yl)phenyl]-2-oxo-5-oxazolidinyl]methyl]acetamide]
MIC [1, 4]: 1 µg/mL (≈ 2.78 µM) | MIC [2, 5]: < 0.25 µg/mL | ED50 [3, 6]: 5.5 mg/kg

CC(=O)NC[C@H]1CN(c2ccc(-n3cc(C(C)=O)nn3)c(F)c2)C(=O)O1 [Example 17, (S)-N-[[3-[3-Fluoro-4-(4-acetyl-1H-1,2,3-triazol-1-yl)phenyl]-2-oxo-5-oxazolidinyl]methyl]acetamide]
MIC [1, 4]: 1 µg/mL (≈ 2.77 µM) | MIC [2, 5]: 0.5 µg/mL (≈ 1.38 µM)

CC(=O)NC[C@H]1CN(c2ccc(-n3cc(C(C)O)nn3)c(F)c2)C(=O)O1 (stereo partly drawn) [Example 18, (S)-N-[[3-[3-Fluoro-4-(4-(1-hydroxyethyl)-1H-1,2,3-triazol-1-yl)phenyl]-2-oxo-5-oxazolidinyl]methyl]acetamide]
MIC [1, 4]: 4 µg/mL (≈ 11 µM) | MIC [2, 5]: 0.5 µg/mL (≈ 1.38 µM)

CC(=O)NC[C@H]1CN(c2ccc(-n3cc(C(C)=NO)nn3)c(F)c2)C(=O)O1 [Example 19]
MIC [1, 4]: 4 µg/mL (≈ 10.6 µM) | MIC [2, 5]: 0.5 µg/mL (≈ 1.33 µM)

COC(=O)c1cn(-c2ccc(N3C[C@H](CNC(C)=O)OC3=O)cc2F)nn1 [Example 20, (S)-N-[[3-[3-Fluoro-4-(4-carbomethoxy-1H-1,2,3-triazol-1-yl)phenyl]-2-oxo-5-oxazolidinyl]methyl]acetamide]
MIC [1, 4]: 4 µg/mL (≈ 10.6 µM) | MIC [2, 5]: 1 µg/mL (≈ 2.65 µM)

CC(=O)NC[C@H]1CN(c2ccc(-n3cc(C=O)nn3)c(F)c2)C(=O)O1 [Example 21, (S)-N-[[3-[3-Fluoro-4-(1H-1,2,3-triazol-1-yl-4-carboxaldehyde)phenyl]-2-oxo-5-oxazolidinyl]methyl]acetamide]
MIC [1, 4]: 0.5 µg/mL (≈ 1.44 µM) | MIC [2, 5]: 0.25 µg/mL (≈ 0.72 µM)

CC(=O)NC[C@H]1CN(c2ccc(-n3cc(CO)cn3)c(F)c2)C(=O)O1 [Example 22, (S)-N-[[3-[3-Fluoro-4-(4-hydroxymethyl-1H-pyrazol-1-yl)phenyl]-2-oxo-5-oxazolidinyl]methyl]acetamide]
MIC [1, 4]: 8 µg/mL (≈ 23 µM) | MIC [2, 5]: 0.5 µg/mL (≈ 1.44 µM)

CCOC(=O)C=Cc1ccn(-c2ccc(N3C[C@H](CNC(C)=O)OC3=O)cc2F)c1 [Example 23, (S)-N-[[3-[3-Fluoro-4-[3-(2-carboethoxyvinyl)-1H-pyrrol-1-yl]phenyl]-2-oxo-5-oxazolidinyl]methyl]acetamide]
MIC [1, 4]: 4 µg/mL (≈ 9.63 µM) | MIC [2, 5]: 0.5 µg/mL (≈ 1.2 µM)

CCOC(=O)CCc1ccn(-c2ccc(N3C[C@H](CNC(C)=O)OC3=O)cc2F)c1 [Example 24, (S)-N-[[3-[3-Fluoro-4-[3-(2-carboethoxyethyl)-1H-pyrrol-1-yl]phenyl]-2-oxo-5-oxazolidinyl]methyl]acetamide]
MIC [1, 4]: 4 µg/mL (≈ 9.58 µM) | MIC [2, 5]: 0.5 µg/mL (≈ 1.2 µM)

CC(=O)NC[C@H]1CN(c2ccc(-n3ccc(CCCO)c3)c(F)c2)C(=O)O1 [Example 25, (S)-N-[[3-[3-Fluoro-4-[3-(3-hydroxypropyl)-1H-pyrrol-1-yl]phenyl]-2-oxo-5-oxazolidinyl]methyl]acetamide]
MIC [1, 4]: 4 µg/mL (≈ 10.7 µM) | MIC [2, 5]: 0.5 µg/mL (≈ 1.33 µM)

CC(=O)NC[C@H]1CN(c2ccc(-n3ccc(CCCNS(C)(=O)=O)c3)c(F)c2)C(=O)O1 [Example 26, (S)-N-[[3-[3-Fluoro-4-[3-(3-methanesulfonylaminopropyl)-1H-pyrrol-1-yl]phenyl]-2-oxo-5-oxazolidinyl]methyl]acetamide]
MIC [1, 4]: 8 µg/mL (≈ 17.7 µM) | MIC [2, 5]: 0.5 µg/mL (≈ 1.1 µM)

CN[C@H](CC(C)C)C(=O)N[C@H]1C(=O)N[C@@H](CC(N)=O)C(=O)N[C@H]2C(=O)N[C@H]3C(=O)N[C@H](C(=O)N[C@H](C(=O)O)c4cc(O)cc(O)c4-c4cc3ccc4O)[C@H](O)c3ccc(c(Cl)c3)Oc3cc2cc(c3O[C@@H]2O[C@H](CO)[C@@H](O)[C@H](O)[C@H]2O[C@H]2C[C@](C)(N)[C@H](O)[C@H](C)O2)Oc2ccc(cc2Cl)[C@H]1O [Vancomycin, reference compound]
MIC ([1]; UC9213, read-out: Minimum Inhibitory Concentration, S. aureus, UC 9213): 1 µg/mL (≈ 0.69 µM) | MIC ([2]; UC9912, read-out: Minimum Inhibitory Concentration, S. pneumoniae, UC 9912): 0.5 µg/mL (≈ 0.345 µM) | ED50 ([3]; read-out: Control, ED50, control drug run alongside each test compound, S. aureus UC 9213, female mice): 2.2 mg/kg | Control, ED50 ([3]; control drug run alongside each test compound, S. aureus UC 9213, female mice, 8640 min): 2.4 mg/kg and 2.0 mg/kg and 1.2 mg/kg
